We go through one compound from US9034387B2, “Intrinsically fluorescent carbon nanospheres and a process thereof” (priority 2007, dated 2015).

The subject of this assay is acetylated histone H3 in HeLa cells. The assay can be described thus: Immunofluorescence analysis using acetylated H3 antibody. It is filed as cell-based. Particulars: CTPB alone at 300 μM, compared with untreated cells. From the text:
FIG. 3. Small molecule HAT activator binds to the CSP and induces hyperacetylation within HeLa cells. (a) X-ray crystal structure of CTPB showing the ball and stick model view of the compound. The color coding of the atoms is as follows: light blue, carbon; white, hydrogen; red, oxygen; grey, fluorine; green, chlorine; dark blue, nitrogen. (b) SEM image of the carbon spheres, adsorbed with CTPB (Panel I). A specific area of the sample was excited with the electron beam of energy suitable for the constituent elements to emit the X-rays of their characteristic wavelength. […] (c)-(d) Top panel represents the confocal image of HeLa cells, Bottom panel represents intensity profile of the image arising from Hoechst stained nuclei shown as blue peak, Fluorescence intensity of CSP is shown as light green peak, Fluorescence intensity from Alexa 488 fluor antibody is shown as dark green peak. HeLa cells, (3c, I) untreated, stained with Hoechst dye; (3c, II) treated with CSP, where carbon sphere fluorescence always overlap with the nuclear region, showing that the nanosphere localized within the nucleus specifically; (3c, III) untreated, probed with antibody against acetylated histone H3; (3c, IV) treated with HAT activator CTPB (300 μM), probed with antibody against acetylated histone H3. […]

As for `CCOc1ccccc1C(=O)Nc1ccc(Cl)c(C(F)(F)F)c1` [CTPB, 4-chloro-3-trifluoromethylphenyl-2-ethoxybenzamide], the “acetylation level (acetylated H3 immunofluorescence), result in words” value is given as “did not show any difference”.
